# Experimental data taken from patent US4761398A, “Method of inducing birds to molt” (Embrex, Inc., priority 1986, dated 1988).
# Key:
# [1] = test system: single combed White Leghorn hens; test: Mortality; assay type: in vivo
# Excerpt: (§1) After the two week pre-molt adjustment period, the hens were randomly assigned to each of eight different groups. These treatment groups were as follows: (1) control, (2) forced molt, (3) chemical molt-injected, (4) vehicle control-injected, (5) chemical molt-microcapsules A, (6) vehicle control-microcapsules A, (7) chemical molt-microcapsules B, and (8) vehicle control-microcapsules B.
# (§2) [D-Trp^6 ]LHRH was used as the LHRH receptor ligand for the chemical molt groups. The "chemical molt-injected" group received intramuscular (breast) injections of 25 micrograms/day of [D-Trp^6 ]LHRH for 10 consecutive days beginning on day 14. Alternate pectoral (breast) areas were injected each day. The "chemical molt-microcapsule" groups received a single intramuscular (breast) injection of microencapsulated [D-Trp^6 ]LHRH on day zero. This preparation of microcapsules provided a controlled release of 25 micrograms [D-Trp^6 ]LHRH per day for 15 consecutive days.
# On day 14, the microcapsule injected groups received intramuscular injections of lactide/glycolide copolymer microcapsules which had [D-Trp^6 ]LHRH incorporated therein. The ligand-containing microcapsules administered the "Microcapsules A" group were prepared and supplied by Debiopharm (Lausanne, Switzerland). […]
# [2] = test system: single combed White Leghorn hens; assay type: in vivo
# Excerpt: as §1, §2
# On day 14, the microcapsule injected groups received intramuscular injections of lactide/glycolide copolymer microcapsules which had [D-Trp^6 ]LHRH incorporated therein. The ligand-containing microcapsules administered the "Microcapsules A" group were prepared and supplied by Debiopharm (Lausanne, Switzerland). These microcapsules were prepared by a phase-separation process to produce a free-flowing powder of spherical particles consisting of [D-Trp^6 ]LHRH (2% wt/wt) distributed within a polymeric matrix of 53:47(mol %) poly(DL-lactide-co-glycolide) (98% wt/wt) with an inherent viscosity of 0.7 dl/g. The microcapsules were 50 micrometers or less in diameter. […] Photomicrographs of similar microcapsules are presented in T. W. Redding, et al., Proc. Natl. Acad. Sci. U.S.A., 81, 5845 (Sept. 1984).
# After the forced molt group achieved a 30% body weight loss, i.e., after 10 days of fasting, six hens from each group were necropsied. The liver, abdominal adipose tissue (fat pad), ovary plus ova and oviduct weights were measured. The remaining forced molt hens received a limited quantity of feed for two days, and were then fed ad libitum. For all groups, body weight and feed consumption were measured weekly. The lighting regime was increased, at weekly intervals, from natural day length to 17 hour light: seven hour dark. For the forced molt and chemical molt groups, when the first egg was produced after the molt, body weights were measured and body weights taken for the 10 selected birds.
# LHRH receptor = target: T1, LHRH receptor (Homo sapiens, UniProt P30968); details: described in U.S. Pat. No. 4,010,125; cited from earlier work
# T1 sequence (P30968 1-328): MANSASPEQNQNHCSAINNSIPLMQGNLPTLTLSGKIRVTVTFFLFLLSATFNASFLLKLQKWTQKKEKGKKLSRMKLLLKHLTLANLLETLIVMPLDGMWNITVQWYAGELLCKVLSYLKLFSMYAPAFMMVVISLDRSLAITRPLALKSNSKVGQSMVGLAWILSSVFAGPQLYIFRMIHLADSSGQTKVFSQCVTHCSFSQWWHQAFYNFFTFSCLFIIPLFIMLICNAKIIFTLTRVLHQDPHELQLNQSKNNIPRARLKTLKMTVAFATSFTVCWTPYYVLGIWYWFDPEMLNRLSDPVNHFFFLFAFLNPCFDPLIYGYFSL
# [3] = hens killed immediately after the molt, Day 23
substance,measurement,setting,value
[D-Trp^6 ]LHRH [D-Trp^6 --LHRH],MORTALITY: Number of Hens That Died,[1]; Evaluated from day 28 to day 94,0
same,mortality in words,[1]; groups that received the ligand,no mortality occurred
same,involution of reproductive tract,[2]; both treated groups,exhibited involution of their reproductive tracts
same,Ovary Wt.,[2]; [3],10.38 g
same,Oviduct Wt.,[2]; [3],17.65 g
same,Abdominal Adipose Tissue Wt.,[2]; in vivo,55.73 g
same,Body Wt.,[2]; in vivo,1.784 kg
same,duration of activity,LHRH receptor,prolonged activity
